Earlier results in patent publication US20200338012A1 (TAHO Pharmaceuticals Ltd., priority 2019, published 2020).
Values after ≈ are worked out from the molar mass of the structure shown.

What was measured:
[1] = oral tablet

COc1ccc(-n2nc(C(N)=O)c3c2C(=O)N(c2ccc(N4CCCCC4=O)cc2)CC3)cc1 [apixaban, Apixaban]
water solubility: 67.9 µg/mL (≈ 148 µM) | bioavailability [1]: 50%
